Reference: patent publication US12326385B2, “Cell-permeable fluorogenic fluorophores” (MAX-PLANCK-GESELLSCHAFT ZUR FÖRDERUNG DER WISSENSCHAFTEN E. …, priority 2018, dated 2025)
Marks after values point to notes of the source that are not given here.

What was measured:
F-actin = experiment: In vitro absorbance and fluorescence response on binding to actin; type: biochemical; conditions: for ε: general actin buffer; for F/F0: ± s.e.m.; for increase in absorbance / increase in fluorescence intensity: upon binding to F-actin, in vitro
F-actin in U2OS cells = experiment: No-wash live-cell imaging of F-actin; type: cell-based
Excerpt: Fluorescent probes for live-cell imaging of cytoskeletal structures have become important tools in the life sciences. In particular, the far-red, SiR-based probes for F-actin (SiR-actin) and microtubules (SiR-tubulin) have become popular as they are fluorogenic and enable no-wash imaging with little background signal. SiR-actin and SiR-tubulin are based on SiR linked to the F-actin-binder jasplakinolide and microtubule-binder docetaxel, respectively. Binding to their targets shifts for both probes the equilibrium between the cell-permeable spirolactone and the fluorescent zwitterion towards the fluorescent form. To generate fluorescent stains for F-actin and microtubule in different colors, the inventors coupled jasplakinolide and docetaxel to 6-TAMRA and its N,N-dimethylsulfamide derivative (probes 169 and 172, named MaP555-actin and MaP555-tubulin in the following). […] The specificity of MaP555-actin and MaP555-tubulin was further confirmed by co-staining with SiR-actin and SiR-tubulin. […] Similarly, binding of MaP555-tubulin to microtubules caused a high increase in absorbance (5.8-fold) and fluorescence (11-fold).
In addition, the inventors coupled the acyl sulfonamide of carbopyronine to jasplakinolide, yielding the actin probe MaP618-actin (171).

[1] = 0.2% SDS in general actin buffer
[2] = MaP618-actin, orange fluorescence

SMILES	Φ (F-actin; [1])	ε^SDS (F-actin; [1])	Φ (F-actin; binding with actin)	ε^protein (F-actin; binding with actin)	λabs (F-actin; binding with actin)	λem (F-actin; binding with actin)	ε (F-actin)	F/F0 (F-actin; ratio of fluorescence intensities at 580 nm in the presence and absence of actin)	increase in absorbance (F-actin) [fold]	increase in fluorescence intensity (F-actin) [fold]	live-cell staining of F-actin (F-actin in U2OS cells)	λem (F-actin; [2]) [nm]	λex (F-actin; [2]) [nm]	fluorogenicity relative to SiR-actin (F-actin; incubation with F-actin)	F/F0 (F-actin; ratio of fluorescence intensities at 635 nm in the presence and absence of actin)
C/C1=C\CC[C@H](C)OC(=O)C[C@H](c2ccc(O)cc2)NC(=O)[C@@H](Cc2c[nH]c3ccccc23)N(C)C(=O)[C@H](CCCCNC(=O)CCCCCNC(=O)c2ccc3c(c2)C2(c4ccc(N(C)C)cc4Oc4cc(N(C)C)ccc42)N(S(=O)(=O)N(C)C)C3=O)NC(=O)[C@@H](C)C1 [compound 169]	0.49	103,000 M^−1cm^−1	0.57	95,000 M^−1cm^−1	558	580	3,600 M^−1cm^−1	107 ± 9.6^m	26	107	enabled no-wash, high-contrast staining	–	–	–	–
C/C1=C\CC[C@H](C)OC(=O)C[C@H](c2ccc(O)cc2)NC(=O)[C@@H](Cc2c[nH]c3ccccc23)N(C)C(=O)[C@H](CCCCNC(=O)CCCCCNC(=O)c2ccc3c(c2)C2(c4ccc(N(C)C)cc4C(C)(C)c4cc(N(C)C)ccc42)N(S(C)(=O)=O)C3=O)NC(=O)[C@@H](C)C1 [compound 171]	0.71	24,000^i M^−1cm^−1	0.78	61,000 M^−1cm^−1	618	635	500 M⁻¹ cm⁻¹	–	122	449	clearly reveal F-actin structures	635	618	about four times more fluorogenic	449 ± 6.8^j
